Results on 2 compounds are retold here after patent publication US12414960B2, “Analogues of oleuropein and oleacein and uses thereof” (Attica Sciences Ltd., priority 2020, dated 2025).

In one data set the test system is IL-6. The data set is described as follows: ELISA of IL-6 in PMA/LPS-treated THP-1 cells. The format is cell-based, human. Particulars: THP-1, PMA then LPS 100 ng/ml 24 hours, 5 uM compound added 2 hours before LPS. The method, then:
Human monocytes (THP-1, ATCC) were cultured in RPMI 1640 media supplemented with HEPES buffer (10 mM), sodium pyruvate (1 mM), glucose (4.5 g/L), fetal bovine serum (10%), penicillin (100 U/mL), streptomycin (100 μg/mL), and 2-mercaptoethanol (0.05 mM). THP-1 cells were treated with PMA (100 ng/ml) for 48 hours and then washed and rested for 24 hours in PMA-free media. These cells were treated with LPS (100 ng/ml) for 24 hours in the presence or absence of 5 uM of […] compounds (added 2 hours before LPS). Cell culture supernatants were collected and IL-1β (cat. No DLB50, R&D Systems), TNF-α (cat. no. DTA00D, R&D Systems) and IL-6 (cat. No D6050, R&D Systems) protein levels were evaluated by ELISA assay.
On the technique in general: In an ELISA, binding on a coated surface is turned into a signal by an enzyme label.

Data set [1] deals with C4-2 castration-resistant prostate cells. The data set is described as follows: C4-2 castration-resistant prostate cancer cell growth. The data set is classed as cell-based. Conditions: 72 hours, androgen-depleted conditions. The procedure: The effect of GS27 on castration-resistant prostate cancer cells was evaluated, alone and in combination with enzalutamide (ENZ). Enzalutamide (XTANDI; Astellas Pharma), is an androgen receptor inhibitor used for treatment of patients with prostate cancer. In a further study, the effect of G27 in combination with ENZ on castration-resistant prostate cancer cells was compared to combination treatment of NDI-091143 with ENZ.
C4-2 Castration-resistant prostate cells cultured in androgen-depleted conditions were treated with 1 μM of GS27, in the presence or absence of 10 μM of enzalutamide (ENZ) for 72 hours.
C4-2 castration-resistant prostate cells cultured in androgen-depleted conditions were treated with 1 μM of GS27 or NDI-091143, in the presence of 10 μM of enzalutamide (ENZ) for 72 hours.

The next data set is described as follows: in vivo. Conditions: female, NOD SCID (NOD.CB17-Prkdc^scid/J), mouse, ip. The source says:
The guidelines of the NCI DTP (National Cancer Institute, Developmental Therapeutics Program, NIH, USA) for acute toxicity testing (DOI: 10.1021/acs.biomac.8b00959) were followed to determine Maximum Tolerated Dose (MTD) of GS27.
For the MTD studies, NOD.CB 17-Prkdc^scid/J mice (also known as NOD SCID mice) were used. All animals for in vivo experiments were kept under specific pathogen-free (SPF) conditions in Type II Long cages, at the experimental unit of our department (Department of Pharmacology, EL42-BIO_Exp03, protocol license 5542/22806-30/11/2015) in a climate-regulated environment (21±1° C.; 50-55% relative humidity) under a 12 h/12 h (lights on at 7:00 AM) light/dark cycle and allowed ad libitum food and water. Female and male mice, 6-8 weeks old, were used in the studies described here. GS27 compound was administered to 15 female mice at two different doses. GS at either 100 or 50 mg/kg was administered in a single dose via i.p. injection in pre-weighed mice. One group of five mice received the carrier and served as controls. […] Mice were also weighed twice weekly for two weeks.

Entries after “also recorded” stand apart in the source; their conditions may differ. Bounds are passed on as bounds.

With `C/C=C(/C=O)[C@@H](CC=O)CC(=O)OCCOc1ccccc1` [GS24, (3S,4E)-4-formyl-3-(2-oxoethyl)-4-hexenoic acid 2-phenoxyethyl ester], the IL-6 protein levels result in the data set on IL-6 was “effective for reducing”.
As to `C/C=C(/C=O)[C@@H](CC=O)CC(=O)SCCc1ccccc1` [GS27, S-phenethyl (3S,4E)-4-formyl-3-(2-oxoethyl)hex-4-enethioate], the “growth of C4-2 prostate cancer cells, combination with enzalutamide” value in data set [1] (1 μM plus 10 μM enzalutamide) is “substantial additive effect; also recorded: more effective than NDI-091143 and enzalutamide”. Moreover, the “growth of C4-2 prostate cancer cells, compound alone” value in data set [1] (1 μM) was “inhibited the growth”. In the data set “in vivo”, this compound came in with an MTD at 2 weeks greater than 200 mg/kg. Besides, the “dose well tolerated for two weeks” value in “in vivo” (2 weeks) is “up to 100 mg/kg”.
